According to patent US8895753B2, “S1P receptor modulating agent” (Meiji Seika Pharma Co., Ltd., priority 2011, dated 2014):

Tests used:
Human S1P3 receptor = Human S1P3 receptor (Homo sapiens, UniProt Q99500); experiment: Agonist activity at a S1P3 receptor (reporter assay, EDG3-Galpha15-NFAT-bla HEK293T cells); type: cell-based
Description: Human S1P3 receptor gene recombinant EDG3-Galpha15-NFAT-bla HEK293T cells (Life Technologies Japan Ltd.) were plated into a 384-well clear bottom black plate treated with poly-D-lysine at a density of 1000 cells/32 μL/well, and the plate was cultured at 37° C. in a 5% CO2 incubator for 16-24 hours. A culture medium containing each test compound prepared as a 5× concentrate was added at 8 μL/well, and the plate was incubated at 37° C. in a 5% CO2 incubator for 5 hours. The substrate (LiveBLAzer™-FRET B/G substrate (CCF4-AM), Life Technologies Japan Ltd.) was prepared as a 6× concentrate was added at 8 μL to each well, and the plate was incubated at room temperature for 2 hours in the dark. The fluorescence intensity of the test samples was measured using a bottom-reading fluorescence microplate reader at one excitation wavelength and 2 wavelengths for fluorescence emission (Ex409 nm, Em460 nm, Em530 nm). The intensity ratio of fluorescence at 460 nm/530 nm was calculated for the compound at each well. The maximum response ratio confirmed from the dose response of S1P was expressed as 100%. The concentration of test compounds required to stimulate 50% of its maximal activation was computed as EC50 (nM).

Human S1P4 receptor = molecular target: T1, Human S1P4 receptor (Homo sapiens, UniProt O95977); experiment: Agonist activity at a S1P4 receptor (reporter assay, EDG6-bla/U2OS cells); type: cell-based
T1 sequence (O95977 1-384): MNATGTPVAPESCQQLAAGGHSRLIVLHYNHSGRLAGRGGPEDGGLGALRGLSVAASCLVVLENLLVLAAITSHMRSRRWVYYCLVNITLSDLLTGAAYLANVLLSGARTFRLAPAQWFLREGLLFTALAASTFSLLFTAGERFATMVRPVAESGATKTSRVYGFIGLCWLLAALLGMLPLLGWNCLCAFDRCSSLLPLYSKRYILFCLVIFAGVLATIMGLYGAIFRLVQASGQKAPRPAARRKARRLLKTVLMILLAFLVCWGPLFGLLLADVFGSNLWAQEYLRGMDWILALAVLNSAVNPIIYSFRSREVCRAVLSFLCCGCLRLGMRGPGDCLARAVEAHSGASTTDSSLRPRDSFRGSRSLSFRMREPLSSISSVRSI
Description: Human S1P4 receptor gene recombinant EDG6-bla/U2OS cells (Life Technologies Japan Ltd.) were seeded into each well of a 384-well clear bottom black plate treated with poly-D-lysine at a density of 10000 cells/32 μL/well and cultured at 37° C. in a 5% CO2 incubator for 16 to 24 hours. A culture medium containing each test compound prepared as a 5× concentrate was added at 8 μL/well, and the plate was cultured at 37° C. in a 5% CO2 incubator for 5 hours. The substrate (LiveBLAzer™-FRET B/G substrate (CCF4-AM), Life Technologies Japan Ltd.) prepared as a 6× concentrate was added at 8 μL to each well, and the plate was incubated for 2 hours in the dark. The fluorescence intensity of the test samples was measured using bottom-reading fluorescence microplate reader at one excitation wavelength and 2 wavelengths for fluorescence emission (Ex409 nm, Em460 nm, Em530 nm). The intensity ratio of fluorescence at 460 nm/530 nm was calculated for each well. The maximum response ratio confirmed from the dose response of S1P was expressed as 100%. The concentration of the test compound required to stimulate 50% of its maximal activation was computed as EC50 (nM).

[1] = test system: collagen-induced arthritis; experiment: Collagen-induced arthritis model; type: in vivo; details: DBA/1JN mouse, oral once daily for 4 weeks
Description: A solution of Type II collagen derived from bovine and Freund's complete adjuvant were mixed to prepare an emulsion. This emulsion was used to elicit collagen-induced arthritis in a 7-week-old female DBA/1JN mouse. The initial sensitization was carried out by subcutaneous administration of the emulsion in the tail of the mouse at a dose of 150 μg/100 μL/body. 21 days after the initial sensitization, a freshly prepared collagen emulsion solution was administered subcutaneously in the tail of the mouse at a dose of 100 μg/100 μL/body as a secondary sensitization. The mouse prepared in this procedure was used as the collagen-induced arthritis model. A compound suspended in 0.5% hydroxymethyl cellulose solution was orally administered by force once daily for 4 weeks following the additional second sensitization. Pathological scores including joint symptoms and the like were measured, and the results compared to the vehicle-treated group, from which the efficacy of the compound was evaluated.

[2] = test system: experimental autoimmune encephalomyelitis; experiment: Experimental autoimmune encephalomyelitis model; type: in vivo; details: SJL/J mouse, orally once daily at 1 mg/kg body weight or more
Description: An emulsion of PLP139-151/CFA was subcutaneously administered to the upper dorsal region and in the tail of an 8-week-old female SJL/J mouse at a dose of 100 μL/body. At 2 hours and 24 hours after the administration, pertussis toxin was peritoneally administered at a dose of 100 μL/body. Thus, the mouse prepared in this procedure was used as an experimental autoimmune encephalomyelitis model. […] The compound suspended in a solution of 0.5% hydroxypropyl methylcellulose was orally administered by force once daily. The changes in pathological score and body weight were recorded and the results compared to the vehicle-treated group, from which the efficacy of the compounds was evaluated.

enterobacterium = experiment: Stability against enterobacterium (feces / cecum homogenates); type: in vitro ADME; details: cynomolgus monkey feces and rat cecum homogenates, 3 and 30 μM, 37° C., 24 hours; all conditions
Description: A culture medium was added to fresh feces of a cynomolgus monkey and rat cecum to prepare homogenates. To a homogenate was added the compound of the Example 2, or 1-{4-[5-(4-isopropoxyphenyl)-1,2,4-oxadiazol-3-yl]benzyl}azetidine-3-carboxylic acid (the compound of the Example 29 of Non-Patent Document 5) adjusted at a concentration of 3 and 30 μM, and the mixture was anaerobically cultured at 37° C. for 24 hours. After the cultivation, the concentration of the residual compound in the culture medium was measured on LC-MS.

electrocardiogram = experiment: Evaluation of electrocardiogram in a rat (under anesthesia); type: in vivo; details: anesthetized rat, intravenous 0.1 mg/kg body weight
Description: Under anesthesia, femoral artery was cannulated in a 7-11-week-old male SD rat (Charles River Laboratories Japan Inc.) that had been reared for more than one week, connected to a polygraph (NIHON KODEN) via a pressure transducer. Without consciousness, a vehicle (dimethylsulfoxide) or a test compound was intravenously administered. After the administration, blood pressure, the heart rate, and electrocardiogram were monitored for about 10 minutes.

Human S1P3 receptor, sequence (Q99500 whole entry): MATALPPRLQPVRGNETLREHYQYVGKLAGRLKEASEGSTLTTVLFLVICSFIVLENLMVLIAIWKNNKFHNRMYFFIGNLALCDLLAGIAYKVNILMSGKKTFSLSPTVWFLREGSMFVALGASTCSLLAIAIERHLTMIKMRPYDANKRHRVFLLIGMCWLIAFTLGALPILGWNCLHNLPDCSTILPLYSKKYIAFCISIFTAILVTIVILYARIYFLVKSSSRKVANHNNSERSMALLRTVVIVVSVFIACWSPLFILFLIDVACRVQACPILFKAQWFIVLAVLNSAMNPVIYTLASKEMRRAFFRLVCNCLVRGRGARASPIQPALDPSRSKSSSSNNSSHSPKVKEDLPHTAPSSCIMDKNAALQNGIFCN

Compound	EC50 (Human S1P3 receptor) [nM]	EC50 (Human S1P4 receptor) [nM]	efficacy on pathological scores (joint symptoms) [1]	inhibition of pathological scores [2]	residual compound after anaerobic culture with homogenate (enterobacterium)	duration of continuous cardiac arrhythmia (AV block) (electrocardiogram) [s]
CC(C)Oc1ccc(-c2cnc(-c3ccc(CN4CC(C(=O)O)C4)cc3)s2)cc1 [Example 2, 1-(4-(5-(4-isopropoxyphenyl)thiazol-2-yl)benzyl)azetidine-3-carboxylic acid]	≥ 2000	≥ 2000	equally effective as Fingolimod	significantly inhibit	remained almost completely intact	< 10
CC(C)Oc1ccc(-c2cnc(-c3ccc(CN4CC(C(=O)O)C4)cc3)s2)cc1Cl [Example 3, 1-(4-(5-(3-chloro-4-isopropoxyphenyl)thiazol-2-yl)benzyl)azetidine-3-carboxylic acid]	≥ 2000	≥ 2000				
